Source: patent US20130317037A1, “METHOD OF ADMINISTRATION AND TREATMENT” (GlaxoSmithKline Intellectual Property Development Limited, priority 2010, published 2013)
Like-named read-outs stand apart in the source and are kept apart here.

Legend:
Assay type in all cases: cell-based
HCC1428 = assay: cells
Description: (§1) From the stock concentration, 8 serial dilutions (1:5) were made with DMSO.
(§2) Day −1: Plate cells in 100 μl volume in 96 well plate. • Note: Cell number seeded adjusted for growth characteristics, so that at time of assay for proliferation following three-day drug treatment, the control wells should still be in log-growth phase (sub-confluent). Day 0: Drug added to plate for treatment. • A time 0 plate was processed for the proliferation assay to establish a baseline reading at time when drug was added.
(§3) LBNL are following the protocols set up by the NCI/NIH DTP Human Tumor Cell Line Screen Process (http://dtp.nci.nih.gov/branches/btb/ivclsp.html) and summarized below.
(§4) [(Ti−Tz)/(C−Tz)]×100 for concentrations for which Ti>/=Tz
(§5) [(Ti−Tz)/(C−Tz)]×100=50, • which is the drug concentration resulting in a 50% reduction in the net growth in control cells during the drug incubation. TGI: Total growth inhibition is calculated from
(§6) Ti=Tz. • The drug concentration resulting in total growth inhibition (down to the ‘time 0’ baseline). LC50: Net loss of cell growth at 50% is calculated from
(§7) [(Ti−Tz)/Tz]×100=−50. • The concentration of drug resulting in a 50% reduction in the cell number at the end of the drug treatment as compared to that at the beginning (time 0) indicating a net loss of cells following treatment.
(§8) Values are calculated for each of these three parameters if the level of activity is reached; however, if the effect is not reached or is exceeded, the value for that parameter is expressed as greater or less than the maximum or minimum concentration tested.

T47DKBluc = assay: cells
Description: as §1, §2, §3, §4, §5, §6, §7, §8

184B5 = assay: in vitro
Description: as §1, §2, §3, §4, §5, §6, §7, §8

ZR751 = assay: cells
Description: as §1, §2, §3, §4, §5, §6, §7, §8

MDAMB361 = assay: cells
Description: as §1, §2, §3, §4, §5, §6, §7, §8

SUM1315MO2 = assay: cells
Description: as §1, §2, §3, §4, §5, §6, §7, §8

ZR75B = assay: cells
Description: as §1, §2, §3, §4, §5, §6, §7, §8

HCC1187 = assay: cells
Description: as §1, §2, §3, §4, §5, §6, §7, §8

in vitro = settings: human
Description: as §1, §2, §3, §4, §5, §6, §7, §8

MDAMB175VII = assay: cells
Description: as §1, §2, §3, §4, §5, §6, §7, §8

BT20 = assay: cells
Description: as §1, §2, §3, §4, §5, §6, §7, §8

MDAMB231 = assay: cells
Description: as §1, §2, §3, §4, §5, §6, §7, §8

HCC1500 = assay: cells
Description: as §1, §2, §3, §4, §5, §6, §7, §8

HCC202 = assay: cells
Description: as §1, §2, §3, §4, §5, §6, §7, §8

MX-1 = assay: cells
Description: as §1, §2, §3, §4, §5, §6, §7, §8

HCC1419 = assay: cells
Description: as §1, §2, §3, §4, §5, §6, §7, §8

MCF10A = assay: cells
Description: as §1, §2, §3, §4, §5, §6, §7, §8

HCC1806 = assay: cells
Description: as §1, §2, §3, §4, §5, §6, §7, §8

MCF12A = assay: cells
Description: as §1, §2, §3, §4, §5, §6, §7, §8

MDAMB468D = assay: cells
Description: as §1, §2, §3, §4, §5, §6, §7, §8

HCC70 = assay: cells
Description: as §1, §2, §3, §4, §5, §6, §7, §8

[1] = Homo sapiens, 50% net loss of cells vs time 0, read-out: LC50 (the source's name)
[2] = Homo sapiens, 72 h, three-day drug treatment, read-out: gIC50

## COc1ncc(-c2ccc3nccc(-c4ccnnc4)c3c2)cc1NS(=O)(=O)c1ccc(F)cc1F [Compound B, 2,4-difluoro-N-{2-(methyloxy)-5-[4-(4-pyridazinyl)-6-quinolinyl]-3-pyridinyl}benzenesulfonamide]
HCC1428; HCC1428, total growth inhibition
  TGI: 158.5 nM
HCC1428; Homo sapiens, 72 h, HCC1428, three-day drug treatment, read-out: gIC50
  IC50: 16.2 nM
HCC1428; Homo sapiens, HCC1428, 50% net loss of cells vs time 0, read-out: LC50 (the source's name)
  CC50: 5.25 µM
T47DKBluc; [1]
  CC50: 9.5 µM
T47DKBluc; [2]
  IC50: 15.4 nM
T47DKBluc; total growth inhibition
  TGI: 74.3 nM
184B5; 184B5, total growth inhibition
  TGI: 46.3 nM
184B5; Homo sapiens, 72 h, 184B5, three-day drug treatment, read-out: gIC50
  IC50: 5.6 nM
ZR751; Homo sapiens, ZR-75-1, 72 h, ZR751, three-day drug treatment, read-out: gIC50
  IC50: 10.5 nM
ZR751; Homo sapiens, ZR-75-1, ZR751, 50% net loss of cells vs time 0, read-out: LC50 (the source's name)
  CC50: 248 nM
ZR751; ZR751, total growth inhibition
  TGI: 30.2 nM
MDAMB361; Homo sapiens, MDA-MB-361, 72 h, MDAMB361, three-day drug treatment, read-out: gIC50
  IC50: 1.7 nM
MDAMB361; Homo sapiens, MDA-MB-361, MDAMB361, 50% net loss of cells vs time 0, read-out: LC50 (the source's name)
  CC50: 26.9 nM
MDAMB361; MDAMB361, total growth inhibition
  TGI: 4.9 nM
SUM1315MO2; Homo sapiens, 72 h, SUM1315MO2, three-day drug treatment, read-out: gIC50
  IC50: 10 nM
SUM1315MO2; Homo sapiens, SUM1315MO2, 50% net loss of cells vs time 0, read-out: LC50 (the source's name)
  CC50: 8.88 µM
SUM1315MO2; SUM1315MO2, total growth inhibition
  TGI: 158.3 nM
ZR75B; Homo sapiens, ZR-75B, 50% net loss of cells vs time 0, read-out: LC50 (the source's name)
  CC50: > 33 µM
ZR75B; Homo sapiens, ZR-75B, 72 h, three-day drug treatment, read-out: gIC50
  IC50: 4.5 nM
ZR75B; total growth inhibition
  TGI: 43.4 nM
HCC1187; HCC1187, total growth inhibition
  TGI: 35.5 nM
HCC1187; Homo sapiens, 72 h, HCC1187, three-day drug treatment, read-out: gIC50
  IC50: 4.9 nM
HCC1187; Homo sapiens, HCC1187, 50% net loss of cells vs time 0, read-out: LC50 (the source's name)
  CC50: 118 nM
In vitro; 184A1 breast epithelium cells (HER2−, PIK3CA NA), 184A1, 50% net loss of cells vs time 0, read-out: LC50
  CC50 at 3 days: 26.7 µM
In vitro; 184B5 breast epithelium cells (HER2−, PIK3CA NA), 184B5, 50% net loss of cells vs time 0, read-out: LC50
  CC50 at 3 days: > 33 µM
In vitro; MCF10A cells (breast epithelium; HER2−; PIK3CA NA), 50% net loss of cells vs time 0, read-out: LC50
  CC50 at 3 days: 6.7 µM
In vitro; MCF10F cells (breast epithelium; HER2−; PIK3CA NA), 50% net loss of cells vs time 0, read-out: LC50
  CC50 at 3 days: 0.0987 µM
In vitro; MCF12A cells (breast epithelium; HER2−; PIK3CA wild type), 50% net loss of cells vs time 0, read-out: LC50
  CC50 at 3 days: 2.76 µM
MDAMB175VII; Homo sapiens, MDA-MB-175-VII, 50% net loss of cells vs time 0, read-out: LC50 (the source's name)
  CC50: 501 nM
MDAMB175VII; Homo sapiens, MDA-MB-175-VII, 72 h, three-day drug treatment, read-out: gIC50
  IC50: 4.4 nM
MDAMB175VII; total growth inhibition
  TGI: 13.5 nM
BT20; BT20, total growth inhibition
  TGI: 95.5 nM
BT20; Homo sapiens, BT-20, 72 h, BT20, three-day drug treatment, read-out: gIC50
  IC50: 14.8 nM
BT20; Homo sapiens, BT-20, BT20, 50% net loss of cells vs time 0, read-out: LC50 (the source's name)
  CC50: 468 nM
MDAMB231; Homo sapiens, MDA-MB-231, 72 h, MDAMB231, three-day drug treatment, read-out: gIC50
  IC50: 110 nM
MDAMB231; Homo sapiens, MDA-MB-231, MDAMB231, 50% net loss of cells vs time 0, read-out: LC50 (the source's name)
  CC50: > 33 µM
MDAMB231; MDAMB231, total growth inhibition
  TGI: >33 µM
HCC1500; HCC1500, total growth inhibition
  TGI: 371.5 nM
HCC1500; Homo sapiens, 72 h, HCC1500, three-day drug treatment, read-out: gIC50
  IC50: 75.9 nM
HCC1500; Homo sapiens, HCC1500, 50% net loss of cells vs time 0, read-out: LC50 (the source's name)
  CC50: 6.5 µM
HCC202; HCC202, total growth inhibition
  TGI: 2.6 nM
HCC202; Homo sapiens, 72 h, HCC202, three-day drug treatment, read-out: gIC50
  IC50: 1.1 nM
HCC202; Homo sapiens, HCC202, 50% net loss of cells vs time 0, read-out: LC50 (the source's name)
  CC50: 21.4 nM
MX-1; Homo sapiens, MX1, 72 h, MX-1, three-day drug treatment, read-out: gIC50
  IC50: 5.2 nM
MX-1; Homo sapiens, MX1, MX-1, 50% net loss of cells vs time 0, read-out: LC50 (the source's name)
  CC50: 251 nM
MX-1; MX-1, total growth inhibition
  TGI: 20.4 nM
HCC1419; HCC1419, total growth inhibition
  TGI: 5.2 nM
HCC1419; Homo sapiens, 72 h, HCC1419, three-day drug treatment, read-out: gIC50
  IC50: 1.5 nM
HCC1419; Homo sapiens, HCC1419, 50% net loss of cells vs time 0, read-out: LC50 (the source's name)
  CC50: 514 nM
MCF10A; Homo sapiens, MCF-10A, 72 h, three-day drug treatment, read-out: gIC50
  IC50: 7.2 nM
MCF10A; total growth inhibition
  TGI: 467.7 nM
HCC1806; HCC1806, total growth inhibition
  TGI: 375.1 nM
HCC1806; Homo sapiens, 72 h, HCC1806, three-day drug treatment, read-out: gIC50
  IC50: 26.2 nM
HCC1806; Homo sapiens, HCC1806, 50% net loss of cells vs time 0, read-out: LC50 (the source's name)
  CC50: 2820 nM
MCF12A; Homo sapiens, MCF-12A, 72 h, three-day drug treatment, read-out: gIC50
  IC50: 7.4 nM
MCF12A; total growth inhibition
  TGI: 178.5 nM
MDAMB468D; [1]
  CC50: 2240 nM
MDAMB468D; [2]
  IC50: 31.6 nM
MDAMB468D; total growth inhibition
  TGI: 537.0 nM
HCC70; HCC70, total growth inhibition
  TGI: 26.8 nM
HCC70; Homo sapiens, 72 h, HCC70, three-day drug treatment, read-out: gIC50
  IC50: 4.9 nM
HCC70; Homo sapiens, HCC70, 50% net loss of cells vs time 0, read-out: LC50 (the source's name)
  CC50: 118 nM
